The record followed here is ChEMBL document CHEMBL3098040, “Design and Discovery of 2-Arylquinazolin-4-ones as Potent and Selective Inhibitors of Tankyrases” (ACS Med Chem Lett, 2013).

The term IC50 denotes the concentration needed to halve the response being measured. Usually inhibition stands for the drop in the measured response relative to a control, in per cent. A higher inhibition goes with a strong effect.

Assay [1] concerns the target Poly [ADP-ribose] polymerase 1 (Homo sapiens, UniProt P09874). The assay is described as follows: Inhibition of PARP1 (unknown origin) after 1 hr by spectrophotometry.
The target in assay [2] is Inosine-5'-monophosphate dehydrogenase 2 (Homo sapiens, UniProt P12268). The experiment in a line: Inhibition of human recombinant IMPDH2 by spectrophotometry.
Assay [3] deals with T1, Poly [ADP-ribose] polymerase tankyrase-2 (Homo sapiens, UniProt Q9H2K2).
T1 sequence (Q9H2K2 whole entry): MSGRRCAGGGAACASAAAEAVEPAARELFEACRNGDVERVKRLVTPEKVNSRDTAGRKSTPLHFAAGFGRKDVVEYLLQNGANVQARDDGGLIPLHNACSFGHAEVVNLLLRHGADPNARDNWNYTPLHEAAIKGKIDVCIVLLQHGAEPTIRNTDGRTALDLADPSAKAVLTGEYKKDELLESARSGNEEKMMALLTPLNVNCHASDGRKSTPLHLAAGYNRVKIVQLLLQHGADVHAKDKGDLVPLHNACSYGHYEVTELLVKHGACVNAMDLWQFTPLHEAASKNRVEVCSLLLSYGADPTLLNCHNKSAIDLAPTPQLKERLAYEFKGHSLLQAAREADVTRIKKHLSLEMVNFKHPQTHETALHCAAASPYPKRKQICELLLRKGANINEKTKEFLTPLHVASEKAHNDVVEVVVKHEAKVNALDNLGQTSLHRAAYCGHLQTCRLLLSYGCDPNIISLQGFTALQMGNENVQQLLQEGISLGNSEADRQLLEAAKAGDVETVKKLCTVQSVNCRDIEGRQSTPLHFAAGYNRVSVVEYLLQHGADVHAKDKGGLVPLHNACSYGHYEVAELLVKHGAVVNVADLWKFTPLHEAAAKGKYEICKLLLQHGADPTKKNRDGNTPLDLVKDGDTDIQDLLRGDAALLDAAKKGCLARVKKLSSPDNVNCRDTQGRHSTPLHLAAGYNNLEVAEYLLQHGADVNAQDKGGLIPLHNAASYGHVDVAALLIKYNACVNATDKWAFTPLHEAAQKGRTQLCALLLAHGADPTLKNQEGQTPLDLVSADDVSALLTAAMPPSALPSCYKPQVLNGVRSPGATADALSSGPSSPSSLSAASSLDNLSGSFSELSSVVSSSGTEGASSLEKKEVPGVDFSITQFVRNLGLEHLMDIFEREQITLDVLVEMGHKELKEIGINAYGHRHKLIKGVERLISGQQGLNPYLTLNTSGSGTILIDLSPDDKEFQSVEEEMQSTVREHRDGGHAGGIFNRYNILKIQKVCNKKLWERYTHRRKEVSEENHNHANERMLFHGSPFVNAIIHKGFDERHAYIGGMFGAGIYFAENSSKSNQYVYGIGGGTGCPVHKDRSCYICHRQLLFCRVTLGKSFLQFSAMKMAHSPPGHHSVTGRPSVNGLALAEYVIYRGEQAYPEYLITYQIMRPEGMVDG
The assay is described as follows: Inhibition of human tankyrase2 after 2 hrs by spectrophotometry.

For assay [4], the target named is T2, Poly [ADP-ribose] polymerase tankyrase-1 (Homo sapiens, UniProt O95271).
T2 sequence (O95271 whole entry): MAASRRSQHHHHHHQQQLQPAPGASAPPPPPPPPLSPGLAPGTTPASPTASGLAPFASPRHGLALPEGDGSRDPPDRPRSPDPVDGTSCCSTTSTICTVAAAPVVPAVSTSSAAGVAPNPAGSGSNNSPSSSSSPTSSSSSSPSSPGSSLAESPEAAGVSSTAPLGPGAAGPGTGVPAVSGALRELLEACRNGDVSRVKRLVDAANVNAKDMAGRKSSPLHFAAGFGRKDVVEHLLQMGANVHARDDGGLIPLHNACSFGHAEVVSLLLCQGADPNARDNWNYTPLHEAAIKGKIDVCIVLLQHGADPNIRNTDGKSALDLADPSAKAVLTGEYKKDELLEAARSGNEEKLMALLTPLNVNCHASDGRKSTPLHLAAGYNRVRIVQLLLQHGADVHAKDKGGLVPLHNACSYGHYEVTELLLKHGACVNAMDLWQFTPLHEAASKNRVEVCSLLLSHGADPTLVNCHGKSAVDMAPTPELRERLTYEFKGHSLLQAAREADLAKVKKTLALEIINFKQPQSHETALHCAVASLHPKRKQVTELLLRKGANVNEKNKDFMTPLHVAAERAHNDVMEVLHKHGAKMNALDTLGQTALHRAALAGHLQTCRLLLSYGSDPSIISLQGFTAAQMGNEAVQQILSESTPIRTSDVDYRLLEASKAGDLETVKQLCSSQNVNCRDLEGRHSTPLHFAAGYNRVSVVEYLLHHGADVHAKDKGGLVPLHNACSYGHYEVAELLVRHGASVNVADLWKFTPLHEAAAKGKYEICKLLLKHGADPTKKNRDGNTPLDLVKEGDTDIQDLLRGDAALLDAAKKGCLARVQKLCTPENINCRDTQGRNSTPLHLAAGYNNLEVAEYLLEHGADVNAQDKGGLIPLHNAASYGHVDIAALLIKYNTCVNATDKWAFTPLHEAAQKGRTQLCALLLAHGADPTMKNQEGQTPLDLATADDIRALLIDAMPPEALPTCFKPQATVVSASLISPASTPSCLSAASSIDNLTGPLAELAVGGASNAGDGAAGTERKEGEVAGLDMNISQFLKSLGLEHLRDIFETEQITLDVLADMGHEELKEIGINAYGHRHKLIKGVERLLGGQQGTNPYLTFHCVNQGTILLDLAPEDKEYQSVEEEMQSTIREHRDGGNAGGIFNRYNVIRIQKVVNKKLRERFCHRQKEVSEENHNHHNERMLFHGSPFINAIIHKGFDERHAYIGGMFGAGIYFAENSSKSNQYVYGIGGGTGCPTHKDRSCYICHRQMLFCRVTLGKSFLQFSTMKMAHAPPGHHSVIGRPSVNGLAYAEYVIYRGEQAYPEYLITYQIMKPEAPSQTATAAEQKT
The assay is described as follows: Inhibition of human tankyrase1 after 30 mins by spectrophotometry.

The target in assay [5] is T3, Poly [ADP-ribose] polymerase tankyrase-2 (Homo sapiens) (UniProt Q9H2K2).
T3 sequence (whole entry): T1 sequence (Q9H2K2 whole entry)
The experiment in a line: Inhibition of human tankyrase2 at 10 nM after 2 hrs by spectrophotometry.

Assay [6] is filed under the species Homo sapiens. The assay is described as follows: Selectivity ratio of IC50 for PARP1 (unknown origin) to IC50 for human tankyrase2.
Assay [7] is filed under the species Homo sapiens. The experiment in a line: Selectivity ratio of IC50 for PARP1 (unknown origin) to IC50 for human tankyrase1.

A value given as a limit tells only on which side of the number the result lay.

Sequence of Poly [ADP-ribose] polymerase 1 (P09874 whole entry): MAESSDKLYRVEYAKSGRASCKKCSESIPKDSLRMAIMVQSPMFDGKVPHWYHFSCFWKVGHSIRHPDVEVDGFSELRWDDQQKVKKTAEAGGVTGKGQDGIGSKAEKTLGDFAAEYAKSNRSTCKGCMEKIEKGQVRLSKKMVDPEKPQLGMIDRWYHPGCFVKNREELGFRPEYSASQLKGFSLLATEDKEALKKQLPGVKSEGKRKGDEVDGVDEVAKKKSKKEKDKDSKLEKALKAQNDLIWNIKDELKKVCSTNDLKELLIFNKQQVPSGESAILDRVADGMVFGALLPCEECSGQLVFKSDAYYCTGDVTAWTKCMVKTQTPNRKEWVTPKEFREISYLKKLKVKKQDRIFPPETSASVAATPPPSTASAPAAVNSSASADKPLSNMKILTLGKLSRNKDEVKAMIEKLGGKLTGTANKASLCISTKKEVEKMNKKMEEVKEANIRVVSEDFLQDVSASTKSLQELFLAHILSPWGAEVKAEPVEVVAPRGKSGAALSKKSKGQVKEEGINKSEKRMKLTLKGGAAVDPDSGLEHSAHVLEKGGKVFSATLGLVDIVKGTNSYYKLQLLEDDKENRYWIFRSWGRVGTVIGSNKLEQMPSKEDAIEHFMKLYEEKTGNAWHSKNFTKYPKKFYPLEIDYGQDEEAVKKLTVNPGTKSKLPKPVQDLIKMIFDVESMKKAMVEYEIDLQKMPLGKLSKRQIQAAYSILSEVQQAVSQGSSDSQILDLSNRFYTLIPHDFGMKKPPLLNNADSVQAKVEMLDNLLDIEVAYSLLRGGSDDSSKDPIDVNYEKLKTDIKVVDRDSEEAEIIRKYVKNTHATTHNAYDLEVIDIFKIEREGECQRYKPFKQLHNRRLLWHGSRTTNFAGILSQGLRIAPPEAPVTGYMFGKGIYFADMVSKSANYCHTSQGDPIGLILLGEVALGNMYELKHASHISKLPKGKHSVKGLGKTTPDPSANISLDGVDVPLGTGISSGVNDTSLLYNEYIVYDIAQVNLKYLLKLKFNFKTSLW

Consider `Cc1cccc2c(=O)[nH]c(-c3ccc(O)cc3)nc12`, for which the IC50 was 1200 nM in assay [1], greater than 10000 nM in assay [2], 3 nM in assay [3] and 52 nM in assay [4].

On to `Cc1cccc2c(=O)[nH]c(-c3ccccc3)nc12`, for which the 50% inhibitory concentration (IC50) in assay [1] is 795 nM; in assay [2] it was greater than 10000 nM; in assay [3], 41 nM; in assay [4], 42 nM.

As for `O=c1[nH]c(-c2ccc([N+](=O)[O-])cc2)nc2ccccc12`, the inhibition in assay [5] was determined as 2%.

Consider `Cc1cccc2c(O)nc(-c3ccc(N)cc3)nc12`, for which the half-maximal inhibitory concentration (IC50) in assay [1] is 504 nM; in assay [2], greater than 10000 nM; in assay [3], 3.3 nM; in assay [4], 35 nM. The Ratio IC50 came out at 170 in assay [6] and 14 in assay [7].

For `O=c1[nH]c(-c2ccc(Cl)cc2)nc2c(O)cccc12`, in assay [5], the inhibition was found to be 32%.

Turning to `COc1cccc2c(=O)[nH]c(-c3ccc(Cl)cc3)nc12`, the inhibition in assay [5] was 25%.

With `COc1ccc(-c2nc3c(C)cccc3c(=O)[nH]2)cc1`, the half-maximal inhibitory concentration (IC50) in assay [1] is 891 nM; in assay [2], greater than 10000 nM; in assay [3], 12 nM; in assay [4], 37 nM.

As to `Cc1cccc2c(=O)[nH]c(-c3ccc(F)cc3)nc12`, the IC50 in assay [1] was greater than 5000 nM; in assay [2] it was greater than 10000 nM; in assay [3], 40 nM; in assay [4], 44 nM.

Take `Cc1cccc2c(=O)[nH]c(-c3ccc(CNC(=O)OCc4ccccc4)cc3)nc12`: the IC50 in assay [1] was greater than 5000 nM; in assay [2] it was greater than 10000 nM; in assay [3], 44 nM; in assay [4], 73 nM. Besides, the Ratio IC50 was greater than 110 in assay [6] and greater than 70 in assay [7].

With `Cc1cccc2c(=O)[nH]c(-c3ccc(Br)cc3)nc12`, the IC50 in assay [1] was greater than 5000 nM; in assay [2], greater than 10000 nM; in assay [3] it was 5.5 nM; in assay [4], 32 nM. In addition, the Ratio IC50 in assay [6] was greater than 830; in assay [7], greater than 150.

Regarding `Cc1ccc(-c2nc3c(C)cccc3c(=O)[nH]2)cc1`, the IC50 in assay [1] is 685 nM; in assay [2] it was greater than 10000 nM; in assay [3] it was 6.7 nM; in assay [4], 35 nM.

As for `Cc1cccc2c(=O)[nH]c(-c3ccc(Cl)cc3)nc12`, the IC50 in assay [1] was greater than 5000 nM; in assay [2] it was greater than 10000 nM; in assay [3], 33 nM; in assay [4] it was 36 nM. The same compound had an inhibition in assay [5] of 49%.

Take `Cc1cccc2c(O)nc(-c3ccc(O)cc3)nc12`: the figures for the Ratio IC50 in assay [6] and in assay [7] were 240 and 23, respectively.

Regarding `Cc1cccc2c(O)nc(-c3ccc(C(F)(F)F)cc3)nc12`, the concentration for half-maximal inhibition (IC50) in assay [1] is greater than 5000 nM; in assay [2] it was greater than 10000 nM; in assay [3] it was 10 nM; in assay [4], 48 nM. Moreover, the Ratio IC50 in assay [6] is greater than 500; in assay [7] it was greater than 100.

In the case of `Oc1nc(-c2ccc(C(F)(F)F)cc2)nc2c1CSCC2`, the 50% inhibitory concentration (IC50) in assay [2] was greater than 10000 nM.

As for `Cc1cccc2c(O)nc(-c3ccc([N+](=O)[O-])cc3)nc12`, the half-inhibitory concentration (IC50) in assay [2] is greater than 10000 nM; in assay [3] it was 30 nM; in assay [4] it was 32 nM.
